Counter-ions that a name gives are not always drawn. Like-named read-outs stand apart in the source and are kept apart here.

The test system of assay [1] is Calpain activity in SH-SY5Y cells (SBDP-150). As to the kind of experiment: SH-SY5Y Spectrin western blot assay (SBDP-150 breakdown product, A23187-induced). It is filed as cell-based. The settings on record: Homo sapiens, SH-SY5Y cells, read-out: SH-SY5Y Spectrin IC50.
The target of assay [2] is T1, Human Calpain 1/NS1 (Homo sapiens, UniProt P07384).
T1 sequence (P07384 1-714): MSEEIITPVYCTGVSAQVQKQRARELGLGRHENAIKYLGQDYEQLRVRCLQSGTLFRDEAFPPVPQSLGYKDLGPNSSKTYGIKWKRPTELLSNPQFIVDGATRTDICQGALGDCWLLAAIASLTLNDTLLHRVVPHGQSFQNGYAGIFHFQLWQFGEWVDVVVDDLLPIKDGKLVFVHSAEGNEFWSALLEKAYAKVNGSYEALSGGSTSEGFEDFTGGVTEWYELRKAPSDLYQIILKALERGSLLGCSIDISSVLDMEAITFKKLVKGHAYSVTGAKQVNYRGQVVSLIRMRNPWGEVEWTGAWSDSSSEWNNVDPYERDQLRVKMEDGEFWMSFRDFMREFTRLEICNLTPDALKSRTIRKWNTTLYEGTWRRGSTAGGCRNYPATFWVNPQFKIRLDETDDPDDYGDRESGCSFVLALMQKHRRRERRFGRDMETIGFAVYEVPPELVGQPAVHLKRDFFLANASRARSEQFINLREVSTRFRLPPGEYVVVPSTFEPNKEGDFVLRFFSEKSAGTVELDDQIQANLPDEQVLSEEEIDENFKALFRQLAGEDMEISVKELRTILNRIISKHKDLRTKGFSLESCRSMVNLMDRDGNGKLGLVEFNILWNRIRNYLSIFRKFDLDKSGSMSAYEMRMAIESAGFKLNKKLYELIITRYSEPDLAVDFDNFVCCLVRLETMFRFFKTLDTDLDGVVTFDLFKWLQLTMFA
T1 sequence (P04632 1-268 partner): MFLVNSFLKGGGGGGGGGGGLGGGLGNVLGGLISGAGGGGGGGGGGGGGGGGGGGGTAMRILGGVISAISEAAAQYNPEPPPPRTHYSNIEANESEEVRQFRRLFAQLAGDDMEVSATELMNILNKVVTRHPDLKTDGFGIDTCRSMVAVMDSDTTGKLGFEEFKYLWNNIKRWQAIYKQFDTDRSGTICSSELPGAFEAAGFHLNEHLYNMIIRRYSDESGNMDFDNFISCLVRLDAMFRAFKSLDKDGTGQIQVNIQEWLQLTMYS
The assay can be described thus: Calpain inhibition continuous fluorescence (FRET) assay, Human Calpain 1/NS1. The conditions noted are these: read-out: Human Calpain 1/NS1 IC50. It is filed as biochemical. An outline of the steps:
(§1)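 Continuous FRET read (ex 490/em 520 nm, 10 min) of calpain 1, 2 or 9 cleaving an internally quenched 5-FAM peptide, triggered by substrate with CaCl2 after enzyme–inhibitor incubation at ambient 25 °C, pH 7.5 Tris/NaCl/DTT buffer. IC50 from initial rates (1-5 min) via 4-parameter fit.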

In assay [3] the test system is Calpain activity in SH-SY5Y cells. As to the kind of experiment: SH-SY5Y + AMC fluorescence assay (Suc-LLVY-AMC substrate). It is filed as cell-based. The settings on record: read-out: SH-SY5Y + AMC IC50.
The target of assay [4] is T2, Human Calpain 2/NS1 (Homo sapiens, UniProt P17655).
T2 sequence (P17655 1-700): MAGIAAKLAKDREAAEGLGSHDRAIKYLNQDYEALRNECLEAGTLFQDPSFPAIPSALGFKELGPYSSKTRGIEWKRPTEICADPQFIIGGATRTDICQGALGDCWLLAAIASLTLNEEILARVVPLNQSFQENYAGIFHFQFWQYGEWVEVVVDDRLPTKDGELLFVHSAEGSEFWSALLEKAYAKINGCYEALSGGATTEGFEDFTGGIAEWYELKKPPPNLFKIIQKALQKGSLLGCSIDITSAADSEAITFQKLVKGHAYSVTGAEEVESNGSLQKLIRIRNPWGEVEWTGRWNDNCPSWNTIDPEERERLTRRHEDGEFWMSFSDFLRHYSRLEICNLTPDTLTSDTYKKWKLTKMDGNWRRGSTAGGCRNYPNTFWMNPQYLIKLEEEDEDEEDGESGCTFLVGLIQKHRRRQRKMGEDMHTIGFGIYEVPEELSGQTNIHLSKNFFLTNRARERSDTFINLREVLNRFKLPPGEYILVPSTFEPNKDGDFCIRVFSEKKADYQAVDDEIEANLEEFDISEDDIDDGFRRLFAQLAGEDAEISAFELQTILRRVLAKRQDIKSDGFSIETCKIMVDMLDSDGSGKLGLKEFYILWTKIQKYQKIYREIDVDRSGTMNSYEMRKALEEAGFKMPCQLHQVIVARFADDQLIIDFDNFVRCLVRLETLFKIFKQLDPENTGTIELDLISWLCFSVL
T2 sequence (P04632 1-268 partner): T1 sequence (P04632 1-268 partner)
The assay can be described thus: Calpain inhibition continuous fluorescence (FRET) assay, Human Calpain 2/NS1. Format: biochemical. The settings on record: read-out: Human Calpain 2/NS1 IC50. An outline of the steps: as §1

The target in assay [5] is T3, Human Calpain 9/NS1 (Homo sapiens, UniProt O14815).
T3 sequence (O14815 1-690): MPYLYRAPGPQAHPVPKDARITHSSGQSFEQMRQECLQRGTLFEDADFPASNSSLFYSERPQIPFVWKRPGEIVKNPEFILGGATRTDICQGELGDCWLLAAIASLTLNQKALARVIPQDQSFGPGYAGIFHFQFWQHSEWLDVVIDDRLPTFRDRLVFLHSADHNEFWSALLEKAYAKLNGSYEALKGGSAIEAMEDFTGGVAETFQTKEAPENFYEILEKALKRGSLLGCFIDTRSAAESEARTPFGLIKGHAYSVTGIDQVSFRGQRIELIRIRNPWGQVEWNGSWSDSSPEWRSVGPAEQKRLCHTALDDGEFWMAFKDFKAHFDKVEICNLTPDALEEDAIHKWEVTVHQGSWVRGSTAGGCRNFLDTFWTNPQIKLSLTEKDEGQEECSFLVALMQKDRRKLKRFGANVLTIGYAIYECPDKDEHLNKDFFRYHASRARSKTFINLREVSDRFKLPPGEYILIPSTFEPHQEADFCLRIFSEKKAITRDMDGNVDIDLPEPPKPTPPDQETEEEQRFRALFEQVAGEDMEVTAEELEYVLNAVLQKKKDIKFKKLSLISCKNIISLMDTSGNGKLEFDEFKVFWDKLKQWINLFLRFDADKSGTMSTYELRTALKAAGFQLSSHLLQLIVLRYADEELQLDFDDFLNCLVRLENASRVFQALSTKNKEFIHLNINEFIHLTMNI
T3 sequence (P04632 1-268 partner): T1 sequence (P04632 1-268 partner)
The assay can be described thus: Calpain inhibition continuous fluorescence (FRET) assay, Human Calpain 9/NS1. It is filed as biochemical. The settings on record: read-out: Human Calpain 9/NS1 IC50. The procedure, abridged: as §1

Setting [6] is: A23187-induced SBDP-150, western blot.
The mark [7] stands for this setting: Column D, A23187-induced SBDP-150.

Take `Cc1cc(C(=O)N[C@@H](Cc2ccccc2)C(=O)C(N)=O)nn1-c1ccnc(Cl)n1` [Compound 435, (S)—N-(4-amino-3,4-dioxo-1-phenylbutan-2-yl)-1-(2-chloropyrimidin-4-yl)-5-methyl-1H-pyrazole-3-carboxamide]: the IC50 in assay [1] (setting [6]) is more than 25 µM; in assay [2], more than 10 µM; in assay [3], less than 10 µM; in assay [4] it was 3 to 10 µM; in assay [5] it was 3 to 10 µM.
As to `Cn1nc(C(=O)N[C@@H](Cc2ccccc2)C(=O)C(N)=O)c(-c2ccccc2)n1` [Compound 259, (S)—N-(4-amino-3,4-dioxo-1-phenylbutan-2-yl)-2-methyl-5-phenyl-2H-1,2,3-triazole-4-carboxamide], the IC50 was less than 10 µM in assay [1] (setting [7]); less than 3 µM in assay [2] (Column A); 10 to 25 µM in assay [3] (Column E); less than 3 µM in assay [4] (Column B); less than 3 µM in assay [5] (Column C).
On to `Cc1cc(C(=O)N[C@@H](Cc2ccccc2)C(=O)C(N)=O)n(-c2cccc(-c3cccc(F)c3)c2)n1` [Compound 106, (S)—N-(4-amino-3,4-dioxo-1-phenylbutan-2-yl)-1-(3′-fluoro-[1,1′-biphenyl]-3-yl)-3-methyl-1H-pyrazole-5-carboxamide], for which the IC50 in assay [1] (setting [7]) is less than 10 µM; in assay [2] (Column A), less than 3 µM; in assay [3] (Column E), more than 25 µM; in assay [4] (Column B), less than 3 µM; in assay [5] (Column C) it was less than 3 µM.
As for `Cn1cc(C(=O)NC(Cc2ccccc2)C(=O)C(N)=O)c(-c2cnc3ccccc3c2)n1` (stereo not drawn) [Compound 605, N-(4-amino-3,4-dioxo-1-phenylbutan-2-yl)-1-methyl-3-(quinolin-3-yl)-1H-pyrazole-4-carboxamide], the IC50 in assay [1] (setting [6]) was more than 25 µM; in assay [2], less than 3 µM; in assay [3], more than 25 µM; in assay [4] it was less than 3 µM; in assay [5], less than 3 µM.
As for `CCN(CC)Cc1ccc(Oc2ccc(-n3nc(C)cc3C(=O)NC(Cc3ccccc3)C(=O)C(N)=O)cc2)cc1` (stereo not drawn) [Compound 441, N-(4-amino-3,4-dioxo-1-phenylbutan-2-yl)-1-(4-(4-((diethylamino)methyl)phenoxy)phenyl)-3-methyl-1H-pyrazole-5-carboxamide hydrochloride], the IC50 in assay [1] (setting [6]) was more than 25 µM; in assay [2], more than 10 µM; in assay [3] it was more than 25 µM; in assay [4] it was more than 10 µM; in assay [5], more than 10 µM.
Turning to `CC[C@@H](C)[C@H](NC(=O)c1oc(C)nc1-c1ccccc1)C(=O)C(N)=O` [Compound 387, N-((3S,4R)-1-amino-4-methyl-1,2-dioxohexan-3-yl)-2-methyl-4-phenyloxazole-5-carboxamide], the IC50 in assay [1] (setting [6]) is more than 25 µM; in assay [2], less than 3 µM; in assay [3], more than 25 µM; in assay [4] it was less than 3 µM; in assay [5] it was less than 3 µM.
For `Cn1cc(C(=O)N[C@@H](Cc2c[nH]c3ccccc23)C(=O)C(N)=O)c(-c2ccccc2)n1` [Compound 423, (S)—N-(4-amino-1-(1H-indol-3-yl)-3,4-dioxobutan-2-yl)-1-methyl-3-phenyl-1H-pyrazole-4-carboxamide], the IC50 in assay [1] (setting [6]) is less than 10 µM; in assay [2], less than 3 µM; in assay [3], less than 10 µM; in assay [4] it was less than 3 µM; in assay [5], less than 3 µM.
With `Cc1cc(C(=O)NC(C=O)Cc2ccccc2)n(-c2cccc(COCc3ccccc3)c2)n1` (stereo not drawn) [Compound 400, 1-(3-((benzyloxy)methyl)phenyl)-3-methyl-N-(1-oxo-3-phenylpropan-2-yl)-1H-pyrazole-5-carboxamide], the IC50 was more than 25 µM in assay [1] (setting [6]); less than 3 µM in assay [2]; more than 25 µM in assay [3]; less than 3 µM in assay [4]; less than 3 µM in assay [5].
With `Cc1cc(C(=O)N[C@@H](Cc2ccccc2)C(=O)C(N)=O)n(-c2ccccn2)n1` [Compound 12, (S)—N-(4-amino-3,4-dioxo-1-phenylbutan-2-yl)-3-methyl-1-(pyridin-2-yl)-1H-pyrazole-5-carboxamide], the IC50 was 10 to 25 µM in assay [1] (setting [7]); less than 3 µM in assay [2] (Column A); less than 10 µM in assay [3] (Column E); less than 3 µM in assay [4] (Column B); less than 3 µM in assay [5] (Column C).
As to `CC(C)n1cc(C(=O)NC(Cc2ccccc2)C(=O)C(N)=O)c(-c2cccc(F)c2)n1` (stereo not drawn) [Compound 473, N-(4-amino-3,4-dioxo-1-phenylbutan-2-yl)-3-(3-fluorophenyl)-1-isopropyl-1H-pyrazole-4-carboxamide], the IC50 in assay [1] (setting [6]) was 10 to 25 µM; in assay [2], less than 3 µM; in assay [3], 10 to 25 µM; in assay [4], less than 3 µM; in assay [5] it was less than 3 µM.
Consider `Cn1cc(C(=O)NC(Cc2ccccc2)C(=O)C(=O)NC2CC2)c(-c2ccccc2)n1` (stereo not drawn) [Compound 458, N-(4-(cyclopropylamino)-3,4-dioxo-1-phenylbutan-2-yl)-1-methyl-3-phenyl-1H-pyrazole-4-carboxamide], for which the IC50 in assay [1] (setting [6]) is 10 to 25 µM; in assay [2], less than 3 µM; in assay [3], less than 10 µM; in assay [4], less than 3 µM; in assay [5], less than 3 µM.
`Cc1cc(C(=O)N[C@@H](Cc2ccccc2)C(=O)C(N)=O)n(-c2ccc(COc3ccccc3)cc2)n1` [Compound 131, (S)—N-(4-amino-3,4-dioxo-1-phenylbutan-2-yl)-3-methyl-1-(4-(phenoxymethyl)phenyl)-1H-pyrazole-5-carboxamide]: the IC50 in assay [1] (setting [7]) is 10 to 25 µM; in assay [2] (Column A), less than 3 µM; in assay [3] (Column E), more than 25 µM; in assay [4] (Column B), less than 3 µM; in assay [5] (Column C), less than 3 µM.
